Laboratory results published in ChEMBL document CHEMBL2176966, “Discovery of 6,7-dihydro-5H-pyrrolo[2,3-a]pyrimidines as orally available G protein-coupled receptor 119 agonists” (J Med Chem, 2012).
Activity calls are given as the source filed them. The calls are words filed in the database; no cut-off is given here.

System: Rattus norvegicus
Experiment: Antihyperglycemic activity in Wistar rat assessed as glucose excursion curve at 10 mg/kg, po by glucose tolerance test
Type: functional
Conditions: not given

Row | SMILES | Activity
1 | N#C[C@@H]1CCCN1C(=O)CNC12CC3CC(CC(O)(C3)C1)C2 | Active

System: Mus musculus
Experiment: Dose normalized AUC (0 to 24 hrs) in mouse at 30 mg/kg
Type: ADME, organism-based
Parameters: dose 30 mg/kg
Conditions: in vivo

Row | SMILES | AUC/dose [µg·h/mL]
2 | CCc1cnc(N2CCC(Oc3ncnc4c3CCN4c3ccc(S(C)(=O)=O)cc3F)CC2)nc1 | 0.04

System: Rattus norvegicus
Experiment: Dose normalized AUC (0 to 24 hrs) in rat at 30 mg/kg
Type: ADME, organism-based
Parameters: dose 30 mg/kg
Conditions: in vivo

Row | SMILES | AUC/dose [µg·h/mL]
3 | CC(C)OC(=O)N1CCC(Oc2ncnc3c2CCN3c2ccc(C#N)cc2F)CC1 | > 1

Target: T1, Glucose-dependent insulinotropic receptor (Homo sapiens, UniProt Q8TDV5)
T1 sequence (Q8TDV5 whole entry): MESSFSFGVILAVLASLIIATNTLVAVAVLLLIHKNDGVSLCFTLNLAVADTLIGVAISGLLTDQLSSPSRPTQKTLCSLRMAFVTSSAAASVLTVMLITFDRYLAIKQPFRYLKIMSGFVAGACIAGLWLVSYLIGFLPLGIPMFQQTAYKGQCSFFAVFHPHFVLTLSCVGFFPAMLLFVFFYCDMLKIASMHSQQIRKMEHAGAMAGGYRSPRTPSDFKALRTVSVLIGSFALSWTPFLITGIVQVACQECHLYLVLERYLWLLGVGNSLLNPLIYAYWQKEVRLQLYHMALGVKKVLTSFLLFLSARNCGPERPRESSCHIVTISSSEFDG
Experiment: Agonist activity at human GPR119 receptor expressed in CHO-K1 cells co-expressing 6CRE-luciferase gene after 5 hrs by luciferase reporter gene assay
Type: functional, cell-based
Conditions: cho-k1

Row | SMILES | pEC50
4 | CC(C)OC(=O)N1CCC(Oc2ncnc3c2CC(C)N3c2ccc(S(C)(=O)=O)cc2F)CC1 (single isomer, unassigned; (+)) | < 5

Same assay, conditions: read-out: EC50

Row | SMILES | EC50 [nM]
5 | O=[N+]([O-])c1c(Nc2ccc(-n3cncn3)cc2)ncnc1N1CCC(Sc2ccccn2)CC1 | 200

Same assay, conditions: read-out: pEC50 (converted)

Row | SMILES | EC50 [nM]
6 | CC(C)OC(=O)N1CCC(Oc2ncnc3c2CCN3c2ccc(S(C)(=O)=O)nc2)CC1 | 251
7 | CCCCOC(=O)N1CCC(Oc2ncnc3c2CCN3c2ccc(S(C)(=O)=O)cc2F)CC1 | 50.1
8 | Cc1nc(OC2CCN(C(=O)OC(C)(C)C)CC2)c2c(n1)N(c1ccc(S(C)(=O)=O)cc1F)CC2 | 126
9 | N#CN1CCC(O)CC1 | 316
10 | CCS(=O)(=O)N1CCC(Oc2ncnc3c2CCN3c2ccc(S(C)(=O)=O)cc2F)CC1 | 1580
11 | CC(C)OC(=O)N1CCC(Oc2ncnc3c2CCN3c2ccc([S@@+](C)[O-])cc2F)CC1 | 631
12 | CC(C)(C)OC(=O)N1CCC(Oc2cccc3c2CCN3c2ccc(S(C)(=O)=O)cc2)CC1 | 158
13 | CC(C)OC(=O)N1CCC(Oc2ncnc3c2CC(C)N3c2ccc(S(C)(=O)=O)cc2F)CC1 (single isomer, unassigned; (-)) | > 10000
14 | CC(C)S(=O)(=O)N1CCC(Oc2ncnc3c2CCN3c2ccc(S(C)(=O)=O)cc2F)CC1 | 1260
15 | CSC(=O)N1CCC(Oc2ncnc3c2CCN3c2ccc(S(C)(=O)=O)cc2F)CC1 | 251
16 | Cc1ncccc1N1CCc2c(OC3CCN(C(=O)OC(C)C)CC3)ncnc21 | > 10000
17 | CC(C)OC(=O)N1CCC(Oc2ncnc3c2CCN3c2ccc(S(C)(=O)=O)cn2)CC1 | 126
18 | CC(C)(C)OC(=O)N1CCC(Oc2cccc3c2ccn3-c2ccc(S(C)(=O)=O)cc2)CC1 | 631
19 | CC(C)OC(=O)N1CCC(Sc2ncnc3c2CCN3c2ccc(S(C)(=O)=O)cc2F)CC1 | 79.4
20 | CC(C)(C)COC(=O)N1CCC(Oc2ncnc3c2CCN3c2ccc(S(C)(=O)=O)cc2F)CC1 | 39.8
21 | CC(C)c1noc(N2CCC(Oc3ncnc4c3CCN4c3ccc(S(C)(=O)=O)cc3F)CC2)n1 | 79.4
22 | CN(C)S(=O)(=O)N1CCC(Oc2ncnc3c2CCN3c2ccc(S(C)(=O)=O)cc2F)CC1 | 398
23 | CS(=O)(=O)c1ccc(N2CCc3c(OC4CCN(C(=S)Sc5ccccc5)CC4)ncnc32)c(F)c1 | 12.6
24 | COC(=O)N1CCC(Oc2ncnc3c2CCN3c2ccc(S(C)(=O)=O)cc2F)CC1 | 316
25 | CCOC(=O)N1CCC(Oc2ncnc3c2CCN3c2ccc(S(C)(=O)=O)cc2F)CC1 | 251
26 | CNc1nc(OC2CCN(C(=O)OC(C)C)CC2)c2c(n1)N(c1ccc(S(C)(=O)=O)cc1F)CC2 | > 10000
27 | Cc1nc(OC2CCN(C(=O)OC(C)C)CC2)c2c(n1)N(c1ccc(S(C)(=O)=O)cc1F)CC2 | 100
28 | CC(C)OC(=O)N1CCC(S(=O)(=O)c2ncnc3c2CCN3c2ccc(S(C)(=O)=O)cc2F)CC1 | > 10000
29 | CC(C)OC(=O)N1CCC(Oc2ncnc3c2CCN3c2ccc(C#N)cn2)CC1 | 794
30 | CC(C)OC(=O)N1CCC(Oc2ncnc3c2CCN3c2ccc(C#N)cc2F)CC1 | 63.1
31 | CC(C)OC(=O)N1CCC(Oc2ncnc3c2CCN3c2ccc(F)cn2)CC1 | > 10000

Row | SMILES | EC50 [nM]
32 | CCN(CC)C(=O)CN1CCC(Oc2ncnc3c2CCN3c2ccc(S(C)(=O)=O)cc2F)CC1 | > 10000
33 | CC(C)OC(=O)N1CCC(Oc2ncnc3c2CCN3c2ccc(-c3cccn3C)cc2F)CC1 | 158
34 | Cc1nc(OC2CCN(c3nc(C(C)C)no3)CC2)c2c(n1)N(c1ccc(S(C)(=O)=O)cc1F)CC2 | 251
35 | CC(C)OC(=O)N1CCC(Oc2ncnc3c2CCN3c2ccc(S(=O)(=O)N(C)C)cc2)CC1 | 501
36 | CCSC(=O)N1CCC(Oc2ncnc3c2CCN3c2ccc(S(C)(=O)=O)cc2F)CC1 | 31.6
37 | CC(C)OC(=O)N1CCC(Oc2ncnc3c2CCN3c2ccc([S@+](C)[O-])cc2F)CC1 | 50.1
38 | CC(C)OC(=O)N1CCC(Oc2ncnc3c2CCN3c2ccc(S(C)(=O)=O)c(F)c2)CC1 | 158
39 | CC(C)OC(=O)N1CCC(Oc2ncnc3c2CCN3c2ccc(-c3nccs3)cc2F)CC1 | 79.4
40 | CC(C)COC(=O)N1CCC(Oc2ncnc3c2CCN3c2ccc(S(C)(=O)=O)cc2F)CC1 | 25.1
41 | CC(C)OC(=O)N1CCC(Oc2ncnc3c2CCN3c2ccc(C#N)c(F)c2)CC1 | 398
42 | CC(C)OC(=O)N1CCC(Oc2cccc3c2CCN3c2ccc(S(C)(=O)=O)cc2)CC1 | 501
43 | CC(C)OC(=O)N1CCC(Nc2ncnc3c2CCN3c2ccc(S(C)(=O)=O)cc2F)CC1 | 2000
44 | CC(C)SC(=O)N1CCC(Oc2ncnc3c2CCN3c2ccc(S(C)(=O)=O)cc2F)CC1 | 10
45 | Cc1cc(S(C)(=O)=O)ccc1N1CCc2c(OC3CCN(C(=O)OC(C)C)CC3)ncnc21 | 100
46 | CC(C)OC(=O)N1CCC(Oc2nc(N)nc3c2CCN3c2ccc(S(C)(=O)=O)cc2F)CC1 | 794
47 | CC(C)OC(=O)N1CCC(N(C)c2ncnc3c2CCN3c2ccc(S(C)(=O)=O)cc2F)CC1 | 631
48 | CC(C)OC(=O)N1CCC(Oc2ncnc3c2CCN3c2ccc(S(C)(=O)=O)cc2)CC1 | 126
49 | CCCOC(=O)N1CCC(Oc2ncnc3c2CCN3c2ccc(S(C)(=O)=O)cc2F)CC1 | 79.4
50 | CC(C)OC(=O)N1CCC(Oc2cccc3c2CCN3c2ccc(S(C)(=O)=O)cc2F)CC1 | 1000
51 | CSc1ccc(N2CCc3c(OC4CCN(C(=O)OC(C)C)CC4)ncnc32)c(F)c1 | 398
52 | COCCOC(=O)N1CCC(Oc2ncnc3c2CCN3c2ccc(S(C)(=O)=O)cc2F)CC1 | 316
53 | CC(C)c1noc(N2CCC(O)CC2)n1 | 50.1
54 | CS(=O)(=O)c1ccc(N2CCc3c(OC4CCN(C5=NCCCN5)CC4)ncnc32)c(F)c1 | 2000
55 | CC(C)(C)OC(=O)N1CCC(Oc2ncnc3c2CCN3c2ccc(S(C)(=O)=O)cc2F)CC1 | 20
56 | CS(=O)(=O)c1ccc(N2CCc3c(OC4CCN(C(=O)OCCF)CC4)ncnc32)c(F)c1 | 501

System: not listed separately
Experiment: AUC (0 to 24 hrs) in rat at 10 mg/kg
Type: ADME, organism-based
Parameters: time < 24 hr, dose 10 mg/kg
Conditions: plasma

Row | SMILES | AUC(0-t) at 24 h [ng·h/mL]
57 | CC(C)c1noc(N2CCC(Oc3ncnc4c3CCN4c3ccc(S(C)(=O)=O)cc3F)CC2)n1 | 500
